Measurements from patent publication US20030008807A1, “Novel signaling pathway for the production of inflammatory pain and neuropathy” (The Regents of the University of California, priority 2001, published 2003).
Entries after “also recorded” stand apart in the source; their conditions may differ.

Experiments:
[1] = test system: mechanical nociceptive threshold; assay: Epinephrine-induced hyperalgesia in gonad-intact and gonadectomized male and female rats (Example 2); conditions: inhibitor 1 μg, epinephrine 100 ng intradermal
Description: The nociceptive flexion reflex was quantified using the Randall-Selitto paw pressure device (Analgesymeter, Stoetling, Chicago, Ill., USA), which applies a linearly increasing mechanical force to the dorsum of the rat's hind paw. The mechanical nociceptive threshold was defined as the force in grams at which the rat withdrew its paw. […] Baseline paw-withdrawal threshold was defined as the mean of six readings before test agents were injected. […] Each group of rats was treated with only one agonist and/or antagonist injected peripherally by the intradermal route. […] All behavioural testing was done between 10.00 and 16.00 h. […] The protein kinase inhibitor was separated from the distilled water by drawing up a small air bubble (<1 μL) into the syringe after drawing up the protein kinase inhibitor but before drawing up the distilled water.
A stock solution of PGE2 (4 mg/mL) was made by dissolving it in 10% ethanol in normal saline; further dilution to 100 ng was made by addition of saline. Final concentration of ethanol was <10%. […] Stock solutions (1 μg/μL) of inhibitors were stored at −20° C. […] Inhibitors were injected at a concentration of 1 μg/2.5 μL.

[2] = test system: mechanical nociceptive threshold; assay: PGE2-induced hyperalgesia, Randall-Selitto paw-withdrawal test (Example 1); format: in vivo, rat; conditions: intradermal, inhibitor 1 μg plus PGE2 100 ng, male rats
Description: (§1) The nociceptive flexion reflex (Randall-Selitto paw-withdrawal test) was quantified with a Basile Analge-symeter (Stoelting, Chicago, Ill.), which applies a linearly increasing mechanical force to the dorsum of the rat's hindpaw. The mechanical nociceptive threshold was defined as the force in grams at which the rat withdrew its paw. On the day of the test, animals were brought to the laboratory and allowed to remain in the cage for 10-15 min. They were allowed to crawl into individual cylindrical Perspex blocks and were lightly restrained there by closing both ends of the cylinder. […] Three readings were taken at 5 min intervals, and their mean was considered the baseline threshold. After each drug administration, mechanical paw-withdrawal thresholds were determined again as the mean of three readings taken 20, 25, and 30 min after injection. The result was expressed as the percentage decrease in nociceptive threshold [(paw-withdrawal threshold after the drug-basal paw withdrawal threshold)/basal withdrawal threshold×100].
(§2) Stock solutions (1 μg/μl) of BIM (in 10% dimethylsulfoxide) and εV1-2 and WI PTI DE (in 0.9% saline) were stored at […]. […] Paw-withdrawal thresholds were measured again 10, 15, and 20 min after injecting the test agent. […] The effect of each dose a test agent was calculated as the percentage change from baseline.

[3] = test system: vincristine-induced hyperalgesia; assay: Vincristine-induced painful peripheral neuropathy, Randall-Selitto paw-withdrawal test; format: in vivo, rat; conditions: male and female rats, administered at site of nociceptive testing on paw
Excerpt: (§3) The role of Ras-MEK-ERK 1/2 cascade in painful peripheral neuropathy has been evaluated in three rodent models of common clinical conditions in which patients experience painful peripheral neuropathy. The three models are as follows: 1) Taxol® (a major cancer chemotherapy agent)-induced painful peripheral neuropathy (Dina, O. A., et al., (2001) Role of protein kinase C-epsilon and protein kinase A in a model of paclitaxel-induced painful peripheral neuropathy in the rat. Neuroscience 108:507-515); 2) vincristine (another cancer chemotherapy agent)-induced painful peripheral neuropathy (Aley, K. O., et al., (1996) Vincristine hyperalgesia in the rat: a possible modelfor painful vincristine neuropathy in humans. Neuroscience 73:259-265; Tanner, K. D., et al., (1998) Nociceptor hyper-responsiveness during vincristine-induced painful peripheral neuropathy in the rat. J. Neuroscience 18:6480-6491; Tanner, K. D., et al., (1998) Microtubule disorientation and axonal swelling in unmyelinated sensory axons during vincristine-induced painful neuropathy in rat. J. Comp. Neurol., 395:481-492; and, Tanner, K. D., et al., (2002) Altered temporal patterning of afferent activity in a rat model of vincristine-induced peripheral neuropathy (Submitted -Neuroscience).); and, 3) alcohol-induced painful peripheral neuropathy (Dina, O. A., et al., (2000) Key role for the epsilon isoform of protein kinase C in painful alcoholic neuropathy in the rat. J. Neurosci. 20:8614-8619). In all three models, inhibition of MEK by a MEK inhibitor, PD98509, produced either a moderate (Taxol and vincristine) or profound (alcohol) reversal of the painful peripheral neuropathy. In the third model, alcohol-induced painful peripheral neuropathy, a second inhibitor of the Ras-MEK-ERK 1/2 cascade, which was MEK inhibitor U0126, was also employed.
The pain threshold in normal male and female rats was approximately 110 grams, using the Randall-Selitto paw-withdrawal test (plotted as absolute change in nociceptive threshold). Following administration of vincristine, the threshold fell to approximately 65 grams.

[4] = test system: Taxol-induced hyperalgesia; assay: Taxol-induced painful peripheral neuropathy, Randall-Selitto paw-withdrawal test; format: in vivo, rat; conditions: male and female rats, administered at site of nociceptive testing on paw
Excerpt: as §3
The pain threshold in normal male and female rats was approximately 110 grams, using the Randall-Selitto paw-withdrawal test (plotted as absolute change in nociceptive threshold). Following administration of Taxol, the threshold fell to approximately 70 grams.

[5] = test system: mechanical nociceptive threshold; assay: ψεRACK (PKCε activator)-induced hyperalgesia, Randall-Selitto paw-withdrawal test; format: in vivo, rat; conditions: intradermal, inhibitor 1 μg plus ψεRACK 1 μg, male rats
Description: as §1, §2

[6] = test system: alcohol-induced hyperalgesia; assay: Alcohol-induced painful peripheral neuropathy, Randall-Selitto paw-withdrawal test; format: in vivo, rat
Excerpt: as §3
The pain threshold in normal rats was approximately 110 grams, using the Randall-Selitto paw-withdrawal threshold test (plotted as percentage change in nociceptive threshold). Following chronic consumption of a diet in which alcohol replaced calories, but not other nutrients, in the normal diet, the threshold fell to approximately 70 grams. […] See FIG. 13A, which illustrates results from female rats and FIG. 13B, which illustrates results from male rats.

[7] = test system: mechanical nociceptive threshold; assay: Epinephrine-induced mechanical hyperalgesia, Randall-Selitto paw-withdrawal test (Example 1)
Description: (§4) The nociceptive flexion reflex (Randall-Selitto paw-withdrawal test) was quantified with a Basile Analge-symeter (Stoelting, Chicago, Ill.), which applies a linearly increasing mechanical force to the dorsum of the rat's hindpaw. The mechanical nociceptive threshold was defined as the force in grams at which the rat withdrew its paw. […] They were allowed to crawl into individual cylindrical Perspex blocks and were lightly restrained there by closing both ends of the cylinder. […] The rats were allowed to acclimatize to the restrainer for 5-10 min, after which the hindpaws were exposed to the test stimulus. Three readings were taken at 5 min intervals, and their mean was considered the baseline threshold. After each drug administration, mechanical paw-withdrawal thresholds were determined again as the mean of three readings taken 20, 25, and 30 min after injection.
Inhibitors were diluted with distilled water before intra-dermal injections into the paw using a 10 μl microsyringe (Hamilton, Reno, Nev.). Injections of peptides (1 μg/2.5 μl) were always preceded by injection of distilled water (2.5 μl) to produce hypo-osmotic shock. […] Paw-withdrawal thresholds were measured again 10, 15, and 20 min after injecting the test agent. The mean of the paw-withdrawal thresholds obtained at these three times was then taken as the mechanical nociceptive threshold at the dose of the test agent used. The effect of each dose a test agent was calculated as the percentage change from baseline.

ERK1/2 = assay: Epinephrine-stimulated ERK1/2 phosphorylation in cultured rat DRG neurons (Western analysis); format: cell-based
Description: Trypsin was inactivated by adding 100 μg/ml soybean trypsin inhibitor and 2.5 mg/ml MgSO4. The cells were centrifuged at 300×g for 5 min and resuspended culture media containing minimal essential medium (MEM) supplemented with 10% heat-inactivated fetal calf serum, 1×MEM vitamins, and 1000 U/ml each of penicillin and streptomycin. The culture was enriched for neurons by preplating on 100 mm culture dishes pretreated with 0.1 mg/ml poly-DL-ornithine in 15 mM sodium borate buffer. After culture for 15-20 hr, the loosely attached neuronal cells were collected and plated for 3 hr on six-well plates coated with 0.1 mg/ml poly-DL-ornithine and 1 mg/ml laminin.
After drug treatment, cells from neuron-enriched DRG cultures were collected and centrifuged at 300×g for 5 min at 4° C. […] Blots were incubated with anti-phospho-p42/44 MAP kinase antibody (diluted 1:500 in blocking buffer) overnight at 4° C. Blots were rinsed three times in PBS-T and incubated in blocking buffer containing HRP-conjugated goat anti-rabbit IgG (diluted 1:1000; Boehringer Mannheim, Indianapolis, Ind.) for 1 hr at 27° C. Immunoreactive bands were visualized by enhanced chemiluminescence (Amersham Pharmacia Biotech, Piscataway, N.J.). The membranes were then stripped of antibodies by incubation in 200 mM NaOH for 20 min at 27° C. […] After three washes in PBS-T, blots were incubated with HRP-conjugated goat anti-rabbit IgG (diluted 1:1000; Boehringer Mannheim) for 1 hr at 27° C., and immunoreactive bands were visualized by enhanced chemiluminescence and autoradiography. […] Data were normalized by dividing values obtained for phospho-ERK1 and phospho-ERK2 immunoreactivity by the value obtained for total ERK1 immunoreactivity for each sample.

[8] = test system: mechanical nociceptive threshold; assay: Active MEK-induced hyperalgesia, Randall-Selitto paw-withdrawal test; conditions: intradermal, inhibitor 1 μg plus active MEK 0.5 U, male rats
Description: as §4
Inhibitors were diluted with distilled water before intra-dermal injections into the paw using a 10 μl microsyringe (Hamilton, Reno, Nev.). Injections of peptides (1 μg/2.5 μl) were always preceded by injection of distilled water (2.5 μl) to produce hypo-osmotic shock. […] Paw-withdrawal thresholds were measured again 10, 15, and 20 min after injecting the test agent. […] The effect of each dose a test agent was calculated as the percentage change from baseline.

[9] = test system: mechanical nociceptive threshold; assay: Prostaglandin E2-induced hyperalgesia in male and female rats (Example 2); format: in vivo, rat; conditions: both sexes, gonad-intact; inhibitor 1 μg, PGE2 100 ng intradermal
Excerpt: The nociceptive flexion reflex was quantified using the Randall-Selitto paw pressure device (Analgesymeter, Stoetling, Chicago, Ill., USA), which applies a linearly increasing mechanical force to the dorsum of the rat's hind paw. The mechanical nociceptive threshold was defined as the force in grams at which the rat withdrew its paw. The protocols for this procedure have been previously described (Taiwo et al., (1989) The contribution of training to sensitivity in the nociceptive paw-withdrawal test. Brain Res., 487:148-151). Rats were familiarized in the testing procedure, at 5-min intervals for a period of 1 h per day for 3 days in the week preceding the experiment, to decrease variance in nociceptive thresholds (Taiwo et al., (1989), supra). Baseline paw-withdrawal threshold was defined as the mean of six readings before test agents were injected. Each paw was treated as an independent measure (Taiwo et al., (1989), supra) and each experiment was performed on a separate group of rats. Each group of rats was treated with only one agonist and/or antagonist injected peripherally by the intradermal route. It has been shown in previous studies that these agents, which are injected using the protocol described, exert a peripheral rather than central action (Khasar et al., (1995), supra; and, Khasar et al., (1999b), supra). The dose-response relationship for the effect of epinephrine was determined over a dose range of 1 ng-1 μg. All behavioural testing was done between 10.00 and 16.00 h. The blocking agents, with and without epinephrine (Khasar et al., (1999b), supra) or prostaglandin E2 (PGE2) (Aley et al., (1998), supra; Aley & Levine, (1999), supra; and, Aley et al., (2000) Chronic hypersensitivity for inflammatory nociceptor sensitization mediated by the epsilon isozyme of protein kinase C. J. Neurosci., 20:4680-4685), were injected as described previously (Khasar et al., (1995), supra; and, Khasar et al., (1999b), supra). […]

[10] = male and female rats, administered at site of nociceptive testing on paw

Row | Compound | effect on epinephrine-induced hyperalgesia ([1]; intact female rats) | effect on hyperalgesia induced by PGE2 [2] | effect on vincristine-induced hyperalgesia [3] | effect on vincristine-induced hyperalgesia ([3]; listed as PD98509) | effect on vincristine-induced hyperalgesia ([3]; listed as PD980598) | effect on Taxol-induced hyperalgesia [4] | effect on Taxol-induced hyperalgesia ([4]; listed as PD98509) | effect on hyperalgesia induced by ψεRACK [5] | effect on alcohol-induced hyperalgesia ([6]; female rats (FIG. 13A)) | effect on alcohol-induced hyperalgesia [6, 10] | effect on alcohol-induced hyperalgesia ([6]; male and female rats, administered at site of nociceptive testing on paw, listed as PD98509) | effect on alcohol-induced hyperalgesia ([6]; male rats (FIG. 13B)) | effect on epinephrine-induced mechanical hyperalgesia ([7]; intradermal, inhibitor 1 μg plus epinephrine 100 ng, male rats) | effect on epinephrine-induced ERK phosphorylation (ERK1/2) | effect on epinephrine-induced mechanical hyperalgesia ([7]; rat, in vivo) | effect on epinephrine-induced hyperalgesia ([1]; gonadectomized female rats) | effect on epinephrine-induced hyperalgesia ([1]; intact male rats) | effect on hyperalgesia induced by active MEK [8] | effect on prostaglandin E2-induced hyperalgesia [9]
1 | COc1cccc(-c2cc(=O)c3ccccc3o2)c1N [PD98059] | attenuated | had no effect | more than two-thirds reduction; also recorded: reversed | moderate | significantly reversed | two-thirds reduction; also recorded: significantly reversed | moderate | had no effect | almost completely reversed | almost complete reversal | profound | almost completely reversed | inhibited |  |  |  |  |  | 
2 | N#CC(=C(/N)Sc1ccccc1N)/C(C#N)=C(\N)Sc1ccccc1N [U0126] | attenuated | had no effect |  |  |  |  |  | had no effect | almost completely reversed | almost complete reversal |  | almost completely reversed |  | inhibited | inhibited |  |  |  | 
3 | WIPTIDE | neither inhibited |  |  |  |  |  |  |  |  |  |  |  |  |  |  | inhibition | antagonized | did not reduce | significantly blocked; also recorded: inhibited to a similar degree
